From patent US9801956B2, “PSMA-targeted NIR dyes and their uses” (On Target Laboratories, LLC, priority 2015, dated 2017) come the findings set out here.

As usually defined, the Kd is the constant that tells how readily two partners part at equilibrium. Low readings indicate a tighter complex, high ones a looser complex.

T1 sequence (Q04609 whole entry): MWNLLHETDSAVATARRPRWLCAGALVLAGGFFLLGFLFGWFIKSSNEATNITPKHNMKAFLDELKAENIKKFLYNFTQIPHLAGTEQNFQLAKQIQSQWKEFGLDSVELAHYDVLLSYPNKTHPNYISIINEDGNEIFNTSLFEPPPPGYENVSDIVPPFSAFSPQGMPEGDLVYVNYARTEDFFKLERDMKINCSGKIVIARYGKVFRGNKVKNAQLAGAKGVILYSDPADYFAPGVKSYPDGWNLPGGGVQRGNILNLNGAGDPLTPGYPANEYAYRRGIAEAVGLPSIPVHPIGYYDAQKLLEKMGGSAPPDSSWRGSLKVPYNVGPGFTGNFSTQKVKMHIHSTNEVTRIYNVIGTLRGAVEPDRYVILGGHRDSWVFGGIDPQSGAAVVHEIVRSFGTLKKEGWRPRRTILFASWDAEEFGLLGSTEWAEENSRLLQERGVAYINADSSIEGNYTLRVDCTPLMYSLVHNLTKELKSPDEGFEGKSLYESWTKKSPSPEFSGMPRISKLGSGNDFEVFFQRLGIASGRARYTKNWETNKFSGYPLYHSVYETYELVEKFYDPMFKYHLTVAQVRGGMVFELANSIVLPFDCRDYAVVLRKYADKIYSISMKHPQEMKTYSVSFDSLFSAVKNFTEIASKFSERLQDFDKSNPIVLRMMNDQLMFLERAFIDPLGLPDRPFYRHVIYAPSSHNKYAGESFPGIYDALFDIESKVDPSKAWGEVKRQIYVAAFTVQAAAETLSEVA

The experiment concerns the target T1, PSMA (Homo sapiens, UniProt Q04609).
T1 construct: PSMA-positive 22Rv1 human prostate cancer cells; endogenous in cells; host or cells: 22Rv1 human prostate cancer cells
Put plainly: Relative binding affinity of DUPA-NIR conjugates versus 100 nM DUPA-FITC (14) on PSMA-positive 22Rv1 human prostate cancer cells, flow cytometry. The conditions noted are these: PSMA-positive 22Rv1 cells, 1 h at 37° C., 100 nM DUPA-FITC competitor. The protocol:
FIG. 3—Relative binding affinities of DUPA-NIR conjugates 1-9 with respect to DUPA-FITC (14). PSMA-positive 22Rv1 human prostate cancer cells were incubated for 1 h at 37° C. in the presence of 100 nM DUPA-FITC with increasing concentrations of DUPA-NIR conjugates. […] Cell bound fluorescence was assayed as using flow cytometry.
FIG. 6—Relative binding affinities of DUPA-NIR conjugates with aromatic amino acids linkers with respect to DUPA-FITC (14). PSMA-positive 22Rv1 human prostate cancer cells were incubated for 1 h at 37° C. in the presence of 100 nM DUPA-FITC with increasing concentrations of DUPA-NIR conjugates. […] Cell bound fluorescence was assayed as using flow cytometry.
FIG. 14—Relative binding affinities of DUPA-NIR conjugates with respect to DUPA-FITC (14). PSMA-positive 22Rv1 human prostate cancer cells were incubated for 1 h at 37° C. in the presence of 100 nM DUPA-FITC with increasing concentrations of DUPA-NIR conjugates. […] Cell bound fluorescence was assayed as using flow cytometry.
PSMA-positive 22Rv1 human prostate cancer cells were incubated for 1 h at 37° C. in the presence of 100 nM DUPA-FITC with increasing concentrations of DUPA-NIR conjugates. […] Cell bound fluorescence was assayed as using flow cytometry.
FIG. 23—Relative binding affinities of DUPA-NIR conjugates with respect to DUPA-FITC (14). […] Cell bound fluorescence was assayed as using flow cytometry.
FIG. 31—Relative binding affinities of DUPA-NIR conjugates with respect to DUPA-FITC (14). […] Cell bound fluorescence was assayed as using flow cytometry.
FIG. 36—Relative binding affinities of PSMA-targeted NIR conjugates with respect to DUPA-FITC (14). […] Cell bound fluorescence was assayed as using flow cytometry.
FIG. 3 Relative binding affinities of DUPA-NIR conjugates 1-9 with respect to DUPA-FITC (14). […] Cell bound fluorescence was assayed as using flow cytometry.
FIG. 24: Relative binding affinities of DUPA-NIR conjugates with respect to DUPA-FITC (14). […] Cell bound fluorescence was assayed as using flow cytometry. […]
The compound `CC1(C)C(=CC=C2CCCC(C=CC3=[N+](CCCCS(=O)(=O)[O-])c4ccccc4C3(C)C)=C2SCC(NC(=O)C(Cc2ccccc2)NC(=O)C(Cc2ccccc2)NC(=O)CCCCCCCNC(=O)CCC(NC(=O)NC(CCC(=O)O)C(=O)O)C(=O)O)C(=O)O)N(CCCCS(=O)(=O)O)c2ccccc21` (stereo not drawn) [Compound 64] returned a Kd of 319 nM.

On to `CC1(C)C(=CC=C2CCCC(C=CC3=[N+](CCCCS(=O)(=O)[O-])c4ccccc4C3(C)C)=C2Oc2ccc(CC(NC(=O)C(CCCNC(=N)N)NC(=O)C(Cc3ccccc3)NC(=O)CCCCCCCNC(=O)CCC(NC(=O)NC(CCC(=O)O)C(=O)O)C(=O)O)C(=O)O)cc2)N(CCCCS(=O)(=O)O)c2ccccc21` (stereo not drawn) [Compound 65], for which binding was characterised by a dissociation constant (Kd) of 983 nM.

`CC1(C)C(=CC=C2CCOC(C=CC3=[N+](CCCCS(=O)(=O)[O-])c4ccc(S(=O)(=O)O)cc4C3(C)C)=C2c2ccc(C(=O)NCCNC(=O)C(Cc3ccccc3)NC(=O)CCCCCCCNC(=O)CCC(NC(=O)NC(CCC(=O)O)C(=O)O)C(=O)O)cc2)N(CCCCS(=O)(=O)O)c2ccc(S(=O)(=O)O)cc21` (stereo not drawn) [Compound 62] yielded a Kd of 141 nM.
